The assay has as its system NCI-H1975 (EGFR-L858R-T790M) cells. In words: Inhibitory activity on proliferation of NCI-H1975 (EGFR-L858R-T790M) cells (CTG, 72 h). Type of assay: cell-based. Particulars: Homo sapiens. How it is done:
NCI-H1975 (EGFR-L858R-T790M) and A431 (EGFR-WT) cells were purchased from ATCC and cultured in an incubator at 37° C. with 5% CO2, and the culture mediums were RPMI1640+10% FBS and DMEM+10% FBS, respectively. On the first day, NCI-H1975 (EGFR-L858R-T790M) and A431 (EGFR-WT) cells in the logarithmic phase were collected, and viable cells were counted using an automatic cell analyzer (countstar). The cell suspensions were adjusted with the culture mediums and plated on a 96-well cell culture plate at 1000 cells/well for NCI-H1975 (EGFR-L858R-T790M) cells and at 3000 cells/well for A431 cells. The next day, the culture mediums were aspirated, and 90 μL of fresh culture mediums and 10 μL of the compounds at different concentrations were added to each well, wherein the final concentration of DMSO in each well was 0.1%. The plate was cultured in the incubator at 37° C. with 5% CO2 for 72 hours. After 72 hours of drug treatment, 50 μL of CTG solution (promega, G7572), which was already pre-melted and equilibrated to room temperature, was added to each well, and the mixtures were uniformly mixed for 2 min using a microplate shaker. The plate was placed at room temperature for 10 min, and then […] signal values were measured using a microplate reader (PHERAstar FSX).
Surviving cells % was calculated based on Vsample/Vvehicle control×100%, wherein Vsample was the readout of the drug-treated group, and Vvehicle control was the average value of the vehicle control group. Using the origin 9.2 software and nonlinear regression model, S-shaped dose-survival curves were plotted, and IC50 values were calculated.

Setting [1] is: read-out: IC50 (value in brackets).

Where two headings read alike, the source gives them in different places.

Consider `COc1cc(N2CCC(CN3CCCC4(CCN(c5ccc6c(c5)C(=O)N(C5CCC(=O)NC5=O)C6=O)CC4)C3)CC2)c(-c2cnn(C)c2)cc1Nc1ncc(Cl)c(Nc2ccc(-c3ccccc3)cc2P(C)(C)=O)n1` (stereo not drawn) [Compound 49, 5-(2-((1-(4-((5-chloro-4-((3-(dimethylphosphoryl)-[1,1′-biphenyl]-4-yl)amino)pyrimidin-2-yl)amino)-5-methoxy-2-(1-methyl-1H-pyrazol-4-yl)phenyl)piperidin-4-yl)methyl)-2,9-diazaspiro[5.5]undecan-9-yl)-2-(2,6-dioxopiperidin-3-yl)isoindoline-1,3-dione], for which the IC50 runs as follows: (read-out: IC50 (class symbol)) 100 to 500 nM; under setting [1], 266 nM.
For `COc1cc(N2CCC(N3CCC(CN4CCC5(CCCN(c6ccc7c(c6)C(=O)N(C6CCC(=O)NC6=O)C7=O)C5)CC4)CC3)CC2)c(-c2cnn(C)c2)cc1Nc1ncc(Cl)c(Nc2ccc3nccnc3c2P(C)(C)=O)n1` (stereo not drawn) [Compound 16, 5-(9-((1′-(4-((5-chloro-4-((5-(dimethylphosphoryl)quinoxalin-6-yl)amino)pyrimidin-2-yl)amino)-5-methoxy-2-(1-methyl-1H-pyrazol-4-yl)phenyl)-[1,4′-bipiperidin]-4-yl)methyl)-2,9-diazaspiro[5.5]undecan-2-yl)-2-(2,6-dioxopiperidin-3-yl)isoindoline-1,3-dione], the IC50 is, setting by setting: (read-out: IC50 (class symbol)) under 100 nM; under setting [1], 73 nM.
In the same order, the values of `COc1cc(N2CCC(N3CCN(c4ccc5c(c4)C(=O)N(C4CCC(=O)NC4=O)C5=O)CC3)CC2)c(-c2cnn(C)c2)cc1Nc1ncc(Br)c(Nc2ccccc2P(C)(C)=O)n1` (stereo not drawn) [Compound 114, 5-(4-(1-(4-((5-bromo-4-((2-(dimethylphosphoryl)phenyl)amino)pyrimidin-2-yl)amino)-5-methoxy-2-(1-methyl-1H-pyrazol-4-yl)phenyl)piperidin-4-yl)piperazin-1-yl)-2-(2,6-dioxopiperidin-3-yl)isoindoline-1,3-dione] are under 100 nM and 60 nM.
Taken in the same sequence, the figures for `COc1cc(N2CCC(N3CCC4(CCCN(c5cc6c(cc5F)C(=O)N(C5CCC(=O)NC5=O)C6=O)C4)CC3)CC2)c(-c2cnn(C)c2)cc1Nc1ncc(Br)c(Nc2ccc3nccnc3c2P(C)(C)=O)n1` (stereo not drawn) [Compound 33, 5-(9-(1-(4-((5-bromo-4-((5-(dimethylphosphoryl)quinoxalin-6-yl)amino)pyrimidin-2-yl)amino)-5-methoxy-2-(1-methyl-1H-pyrazol-4-yl)phenyl)piperidin-4-yl)-2,9-diazaspiro[5.5]undecan-2-yl)-2-(2,6-dioxopiperidin-3-yl)-6-fluoroisoindoline-1,3-dione] were under 100 nM and 28 nM.
In the same order, the values of `COc1cc(N2CCC(N3CCN(c4ccc5c(c4)C(=O)N(C4CCC(=O)NC4=O)C5=O)CC3)CC2)c(-c2cnn(C)c2)cc1Nc1ncc(Cl)c(Nc2ccccc2P(C)(C)=O)n1` (stereo not drawn) [Compound 115, 5-(4-(1-(4-((5-chloro-4-((2-(dimethylphosphoryl)phenyl)amino)pyrimidin-2-yl)amino)-5-methoxy-2-(1-methyl-1H-pyrazol-4-yl)phenyl)piperidin-4-yl)piperazin-1-yl)-2-(2,6-dioxopiperidin-3-yl)isoindoline-1,3-dione] are under 100 nM and 73 nM.
As to `COc1cc(N2CCN(c3ccc4c(c3)C(=O)N(C3CCC(=O)NC3=O)C4=O)CC2)c(-c2cnn(C)c2)cc1Nc1ncc(Br)c(Nc2ccccc2P(C)(C)=O)n1` (stereo not drawn) [Compound 169, 5-(4-(4-((5-bromo-4-((2-(dimethylphosphoryl)phenyl)amino)pyrimidin-2-yl)amino)-5-methoxy-2-(1-methyl-1H-pyrazol-4-yl)phenyl)piperazin-1-yl)-2-(2,6-dioxopiperidin-3-yl)isoindoline-1,3-dione], the IC50 (read-out: IC50 (class symbol)) fell in the range of 100 to 500 nM and the IC50 under setting [1] was found to be 111 nM.

The values are drawn from patent US20240269298A1, “PHOSPHONYL DERIVATIVE, AND COMPOSITION AND PHARMACEUTICAL APPLICATION THEREOF” (XIZANG HAISCO PHARMACEUTICAL CO., LTD., priority 2021, published 2024).
